# Experimental data: patent US11077100B2, “Tetrahydroquinoline derivatives as P2X7 receptor antagonists” (RaQualia Pharma Inc., priority 2017, dated 2021)
# Experiments:
# human P2X7 = human P2X7 (Homo sapiens (Human), UniProt Q99572); assay: Human P2X7 functional assay (Ca2+ influx, Fluo-4, FDSS); assay type: cell-based; settings: antagonistic activity with respect to the human P2X7 receptor; BzATP final concentration 80 microM
# Summary of the method: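 Ca2+ influx was triggered with BzATP (80 μM final) after a 10-min room-temperature compound preincubation and monitored with Fluo-4 (ex 480/em 540 nm) on FDSS. The cells were HEK293 stably carrying FLAG-tagged human P2X7. Duplicate-averaged 7-point dose-responses gave IC50s.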
# rat P2X7 = rat P2X7 (Rattus norvegicus (Rat), UniProt Q64663); assay: Rat P2X7 functional assay (Ca2+ influx, Fluo-4, FDSS); assay type: cell-based; settings: HEK293 cells stably expressing rat P2X7; BzATP final 10 microM; 7-point dose-response; read-out: Antagonistic activities with respect to the rat P2X7 receptor (IC50)
# rat P2X7, sequence (Q64663 whole entry): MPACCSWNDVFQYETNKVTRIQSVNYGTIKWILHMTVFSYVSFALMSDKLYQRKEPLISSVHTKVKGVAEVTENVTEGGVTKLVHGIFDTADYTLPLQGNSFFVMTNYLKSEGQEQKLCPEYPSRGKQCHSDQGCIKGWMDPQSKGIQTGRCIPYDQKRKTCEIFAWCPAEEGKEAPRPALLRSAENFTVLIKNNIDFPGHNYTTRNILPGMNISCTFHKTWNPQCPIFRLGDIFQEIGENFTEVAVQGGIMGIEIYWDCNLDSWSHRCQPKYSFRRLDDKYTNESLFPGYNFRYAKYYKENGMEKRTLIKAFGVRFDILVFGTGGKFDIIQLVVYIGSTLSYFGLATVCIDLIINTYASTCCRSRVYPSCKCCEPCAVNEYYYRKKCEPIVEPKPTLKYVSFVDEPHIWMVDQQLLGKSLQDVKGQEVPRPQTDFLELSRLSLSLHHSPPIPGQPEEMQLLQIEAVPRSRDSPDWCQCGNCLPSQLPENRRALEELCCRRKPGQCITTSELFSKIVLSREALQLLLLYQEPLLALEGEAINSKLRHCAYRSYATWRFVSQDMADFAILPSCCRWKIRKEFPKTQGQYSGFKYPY
# Summary of the method: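 IC50 derived from 7-point dose-response in duplicate, measuring inhibition of BzATP-evoked (final 10 microM) intracellular Ca2+ increase by Fluo-4 fluorescence on FDSS. Rat P2X7-HEK293 cells were exposed to compound for 10 min in the dark beforehand.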
# human P2X7, sequence (Q99572 whole entry): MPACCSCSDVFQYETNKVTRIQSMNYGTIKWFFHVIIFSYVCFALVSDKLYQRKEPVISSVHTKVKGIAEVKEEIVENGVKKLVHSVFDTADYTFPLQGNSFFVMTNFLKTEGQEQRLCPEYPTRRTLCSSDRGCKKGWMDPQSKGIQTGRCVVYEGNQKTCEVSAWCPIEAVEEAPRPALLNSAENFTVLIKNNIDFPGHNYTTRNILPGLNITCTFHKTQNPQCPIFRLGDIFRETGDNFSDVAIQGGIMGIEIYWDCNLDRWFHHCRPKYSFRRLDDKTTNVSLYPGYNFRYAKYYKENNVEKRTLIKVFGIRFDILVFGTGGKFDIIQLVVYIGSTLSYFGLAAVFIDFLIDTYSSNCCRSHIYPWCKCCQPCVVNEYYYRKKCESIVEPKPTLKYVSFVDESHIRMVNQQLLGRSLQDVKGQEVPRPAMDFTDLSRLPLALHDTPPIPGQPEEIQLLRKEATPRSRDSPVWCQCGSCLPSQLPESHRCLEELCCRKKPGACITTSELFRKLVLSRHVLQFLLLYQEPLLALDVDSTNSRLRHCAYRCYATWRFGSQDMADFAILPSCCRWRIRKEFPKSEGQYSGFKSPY
SMILES,IC50 (human P2X7),IC50 (rat P2X7)
"Cc1cc(Cl)cc(Cl)c1CNC(=O)[C@H]1C[C@H](O)c2ncccc21 [Example 83, (5S,7S)-N-(2,4-dichloro-6-methylbenzyl)-7-hy-droxy-5,7-dihydro-5H-cyclopenta[b]pyridin-5-carboxamide]",101 to 300 nM,< 1000 nM
"Cc1cc(Cl)cc(Cl)c1CNC(=O)[C@@H]1CC[C@@H](O)c2ncccc21 [Example 84, (5R,8R)-N-(2,4-dichloro-6-methylbenzyl)-8-hy-droxy-5,6,7,8-tetrahydro-quinoline-5-carboxamide]",< 50 nM,< 1000 nM
"Cc1cc(Cl)cc(Cl)c1CNC(=O)[C@H]1CC[C@@H](O)c2ncccc21 [Example 85, (5S,8R)-N-(2,4-dichloro-6-methylbenzyl)-8-hy-droxy-5,6,7,8-tetrahydro-quinoline-5-carboxamide]",< 50 nM,< 1000 nM
"O=C(NCc1ccc(Cl)cc1Cl)[C@@H]1CC[C@@H](O)c2ncccc21 [Example 87, (5R,8R)-N-(2,4-dichloro-benzyl)-8-hydroxy-5,6,7,8-tetrahydroquinoline-5-carboxamide]",50 to 100 nM,< 1000 nM
"O=C(NCc1ccc(F)cc1Cl)[C@@H]1CC[C@@H](O)c2ncccc21 [Example 89, (5R,8R)-N-(2-chloro-4-fluorobenzyl)-8-hydroxy-5,6,7,8-tetrahydroquinoline-5-carboxamide]",101 to 300 nM,< 1000 nM
"O=C(NCc1cccc(C(F)(F)F)c1Cl)[C@]1(F)CC[C@@H](O)c2ncccc21 [Example 102, (5S,8R)-N-(2-chloro-3-(trifluoromethyl)benzyl)-5-fluoro-8-hydroxy-5,6,7,8-tetrahydroquinoline-5-carboxamide]",< 50 nM,< 1000 nM
"O=C(NCc1ccc(F)cc1Cl)[C@]1(F)CC[C@@H](O)c2ncccc21 [Example 107, (5S,8R)-N-(2-chloro-4-fluorobenzyl)-5-fluoro-8-hydroxy-5,6,7,8-tetrahydroquinoline-5-carboxamide]",101 to 300 nM,< 1000 nM
"O=C(NCc1ccc(F)cc1C(F)(F)F)[C@]1(F)CC[C@@H](O)c2ncccc21 [Example 110, (5S,8R)-5-fluoro-N-(4-fluoro-2-(trifluoromethyl)benzyl)-8-hydroxy-5,6,7,8-tetrahydroquinoline-5-carboxamide]",301 to 1000 nM,< 1000 nM
"O=C(NCc1ccc(Cl)cc1F)[C@]1(F)CC[C@@H](O)c2ncccc21 [Example 111, (5S,8R)-N-(4-chloro-2-fluorobenzyl)-5-fluoro-8-hydroxy-5,6,7,8-tetrahydroquinoline-5-carboxamide]",301 to 1000 nM,< 1000 nM
O=C(NCc1c(Cl)cc(Cl)cc1C(F)F)[C@]1(F)CC[C@@H](O)c2ncccc21 [Example 115],< 50 nM,< 1000 nM
"O=C(NCc1c(F)cc(Cl)cc1Cl)[C@]1(F)CC[C@@H](O)c2ncccc21 [Example 117, (5S,8R)-N-(2,4-dichloro-6-fluorobenzyl)-5-fluoro-8-hydroxy-5,6,7,8-tetrahydroquinoline-5-carboxamide]",< 50 nM,< 1000 nM
"O=C(NCc1ccc(Br)cc1Cl)[C@]1(F)CC[C@@H](O)c2ncccc21 [Example 118, (5S,8R)-N-(4-bromo-2-chlorobenzyl)-5-fluoro-8-hydroxy-5,6,7,8-tetrahydroquinoline-5-carboxamide]",< 50 nM,< 1000 nM
"Cc1cccc(Cl)c1CNC(=O)[C@]1(F)CC[C@@H](O)c2ncccc21 [Example 122, (5S,8R)-N-(2-chloro-6-methylbenzyl)-5-fluoro-8-hydroxy-5,6,7,8,- tetrahydroquinoline-5-carboxamide]",50 to 100 nM,< 1000 nM
"O=C(NCc1cccc(C(F)(F)F)c1Cl)[C@@]1(F)CC[C@@H](O)c2ncccc21 [Example 128, (5R,8R)-N-(2-chloro-3-(trifluoromethyl)benzyl)-5-fluoro-8-hydroxy-5,6,7,8-tetrahydroquinoline-5-carboxamide]",< 50 nM,< 1000 nM
"O=C(NCc1cccc(C(F)(F)F)c1Cl)[C@]1(F)CC[C@H](O)c2ncccc21 [Example 129, (5S,8S)-N-(2-chloro-3-(trifluoromethyl)benzyl)-5-fluoro-8-hydroxy-5,6,7,8-tetrahydroquinoline-5-carboxamide]",< 50 nM,< 1000 nM
"O=C(NCc1ccc(Cl)cc1Cl)[C@@]1(F)CC[C@@H](O)c2ncccc21 [Example 132, (5R,8R)-N-(2,4-dichlorobenzyl)-5-fluoro-8-hydroxy-5,6,7,8-tetrahydroquinoline-5-carboxamide]",< 50 nM,< 1000 nM
"O=C(NCc1ccc(Cl)cc1Cl)[C@]1(F)CC[C@H](O)c2ncccc21 [Example 133, (5S,8S)—N-(2,4-dichlorobenzyl)-5-fluoro-8-hydroxy-5,6,7,8-tetrahydroquinoline-5-carb oxamide]",< 50 nM,< 1000 nM
"O=C(NCc1ccc(F)cc1Cl)[C@@]1(F)CC[C@@H](O)c2ncccc21 [Example 134, (5R,8R)-N-(2-chloro-4-fluorobenzyl)-5-fluoro-8-hydroxy-5,6,7,8-tetrahydroquinoline-5-carboxamide]",101 to 300 nM,< 1000 nM
"O=C(NCc1ccc(F)c(F)c1F)[C@@]1(F)CC[C@@H](O)c2ncccc21 [Example 136, (5R,8R)-5-fluoro-8-hydroxy-N-(2,3,4-trifluorobenzyl)-5,6,7,8-tetrahydroquinoline-5-carboxamide]",101 to 300 nM,< 1000 nM
"O=C(NCc1ccc(F)c(F)c1F)[C@]1(F)CC[C@H](O)c2ncccc21 [Example 137, (5S,8S)-5-fluoro-8-hydroxy-N-(2,3,4-trifluorobenzyl)-5,6,7,8-tetrahydroquinoline-5-carboxamide]",< 50 nM,< 1000 nM
"O=C(NCc1ccc(F)cc1F)[C@]1(F)CC[C@H](O)c2ncccc21 [Example 141, (5S,8S)-N-(2,4-difluorobenzyl)-5-fluoro-8-hydroxy-5,6,7,8-tetrahydroquinoline-5-carboxamide]",< 50 nM,< 1000 nM
"Cc1ccc(F)c(CNC(=O)[C@]2(F)CC[C@H](O)c3ncccc32)c1Cl [Example 142, (5S,8S)-N-(2-chloro-6-fluoro-3-methylbenzyl)-5-fluoro-8-hydroxy-5,6,7,8-tetrahydroquinoline-5-carboxamide]",< 50 nM,< 1000 nM

# The next lines start with the values.
IC50 (human P2X7),IC50 (rat P2X7),SMILES
< 50 nM,< 1000 nM,"O=C(NCc1ccc(F)c(F)c1Cl)[C@@H]1CC[C@H](O)c2ncccc21 [Example 82, (5R,8S)-N-(2-chloro-3,4-difluorobenzyl)-8-hy-droxy-5,6,7,8-tetrahydro-quinoline-5-carboxamide]"
< 50 nM,< 1000 nM,"O=C(NCc1ccc(Cl)cc1Cl)[C@H]1CC[C@@H](O)c2ncccc21 [Example 88, (5S,8R)-N-(2,4-dichloro-benzyl)-8-hydroxy-5,6,7,8-tetrahydroquinoline-5-carboxamide]"
< 50 nM,< 1000 nM,"Cc1cc(Cl)cc(Cl)c1CNC(=O)[C@@H]1C[C@@H](O)c2ncccc21 [Example 97, (5R,7R)-N-(2,4-dichloro-6-methylbenzyl)-7-hy-droxy-6,7-dihydro-5H-cyclopenta[b]pyridin-5-carboxamide]"
< 50 nM,< 1000 nM,"Cc1cc(Cl)cc(Cl)c1CNC(=O)[C@]1(F)CC[C@@H](O)c2ncccc21 [Example 100, (5S,8R)-N-(2,4-dichloro-6-methylbenzyl)-5-fluoro-8-hydroxy-5,6,7,8-tetrahydroquinoline-5-carboxamide]"
< 50 nM,< 1000 nM,O=C(NCc1c(Cl)cc(Cl)cc1CO)[C@]1(F)CC[C@@H](O)c2ncccc21 [Example 104]
< 50 nM,< 1000 nM,"O=C(NCc1ccc(Cl)cc1Cl)[C@]1(F)CC[C@@H](O)c2ncccc21 [Example 106, (5S,8R)-N-(2,4-dichlorobenzyl)-5-fluoro-8-hydroxy-5,6,7,8-tetrahydroquinoline-5-carboxamide]"
301 to 1000 nM,< 1000 nM,"O=C(NCc1ccc(F)c(F)c1F)[C@]1(F)CC[C@@H](O)c2ncccc21 [Example 108, (5S,8R)-5-fluoro-8-hydroxy-N-(2,3,4-trifluorobenzyl)-5,6,7,8-tetrahydroquinoline-5-carboxamide]"
< 50 nM,< 1000 nM,"O=C(NCc1c(Cl)cc(Cl)cc1CO)[C@@]1(F)CC[C@@H](O)c2ncccc21 [Example 130, (5R,8R)-N-(2,4-dichloro-6-(hydroxymethyl)benzyl)-5-fluoro-8-hydroxy-5,6,7,8-tetrahydroquinoline-5-carboxamide]"
< 50 nM,< 1000 nM,"O=C(NCc1c(Cl)cc(Cl)cc1CO)[C@]1(F)CC[C@H](O)c2ncccc21 [Example 131, (5S,8S)-N-(2,4-dichloro-6-(hydroxymethyl)benzyl)-5-fluoro-8-hydroxy-5,6,7,8-tetrahydroquinoline-5-carboxamide]"
< 50 nM,< 1000 nM,"O=C(NCc1ccc(F)cc1Cl)[C@]1(F)CC[C@H](O)c2ncccc21 [Example 135, (5S,8S)-N-(2-chloro-4-fluorobenzyl)-5-fluoro-8-hydroxy-5,6,7,8-tetrahydroquinoline-5-carboxamide]"
< 50 nM,< 1000 nM,"O=C(NCc1c(Cl)cccc1Cl)[C@]1(F)CC[C@H](O)c2ncccc21 [Example 139, (5S,8S)-N-(2,6-dichlorobenzyl)-5-fluoro-8-hydroxy-5,6,7,8-tetrahydroquinoline-5-carboxamide]"
